This note sets out measurements from publication PMC6933084 (Journal of medicinal chemistry, 2019).

Assay [1] deals with T1, WDR5 (Homo sapiens, UniProt P61964). The conditions noted are these: for binding affinity for WDR5 (in words): FPA.
For assay [2], the target named is T1, WDR5. Description: Thermal shift by differential scanning fluorimetry. The conditions noted are these: DSF; 10 μM, or ten-point dilution for 7k. It counts as binding. (In general: In DSF a fluorescence change marks the thermal transition of the protein.)
The next assay deals with WDR5-RBBP5 (Homo sapiens, UniProt P61964). It counts as biochemical. Conditions: HEK293 lysates; lowest concentration tested (6.25 μM).
In the next assay the target is WDR5-c-MYC (Homo sapiens, UniProt P61964). It counts as biochemical. Conditions: HEK293 lysates; lowest concentration tested (6.25 μM).
The target of assay [3] is T1, WDR5. In words: biochemical.

For the compound `COc1ccccc1S(=O)(=O)Nc1cc(Cl)ccc1O` [Compound 5a, N-(5-Chloro-2-hydroxyphenyl)-2-methoxybenzenesulfonamide], on WDR5 [1], the “binding affinity for WDR5 (in words)” value is on record as “all binding affinity for WDR5 is lost”.
Turning to `O=S(=O)(Nc1cc(S(F)(F)(F)(F)F)ccc1O)c1cc(Br)ccc1O` [Compound 5k, 5-Bromo-2-hydroxy-N-(2-hydroxy-5-(pentafluorosulfanyl)phenyl)benzenesulfonamide], the “improved binding affinity in comparison to 5l” value at WDR5 [1] (FPA Kd ratio vs trifluoromethyl cyclopropane 5l) was ~ 5 fold.
With `O=C(O)c1cc(S(F)(F)(F)(F)F)cc(NS(=O)(=O)c2cc(Br)cc(Cl)c2O)c1O` [Compound 6o, 3-((5-Bromo-3-chloro-2-hydroxyphenyl)sulfonamido)-2-hydroxy-5-(pentafluorosulfanyl)benzoic acid], at WDR5 [2], the “WDR5 stabilization by thermal shift (in words)” value is on record as “largest ΔTm”.
`N#CC1(c2cc(NS(=O)(=O)c3cc(Br)cc(Cl)c3O)c(O)c(C(=O)O)c2)CCC1` [Compound 6r, 3-((5-Bromo-3-chloro-2-hydroxyphenyl)sulfonamido)-5-(1-cyanocyclobutyl)-2-hydroxybenzoic acid]: on WDR5 [2], the “WDR5 stabilization by thermal shift (in words)” value was “largest ΔTm”. On WDR5-RBBP5, the “disruption of the association WDR5-RBBP5 at the lowest concentration tested” value is on record as “marked disruption”. Besides, on WDR5-c-MYC, the “disruption of the association WDR5-c-MYC at the lowest concentration tested” value is reported as “marked disruption”.
For the compound `N#CC1(c2cc(NS(=O)(=O)c3cc(Br)cc(Cl)c3O)c(O)c(C(=O)O)c2)CCCCC1` [Compound 6t, 3-((5-Bromo-3-chloro-2-hydroxyphenyl)sulfonamido)-5-(1-cyanocyclohexyl)-2-hydroxybenzoic acid], the “WDR5 stabilization by thermal shift (in words)” value on WDR5 [2] was “largest ΔTm”.
Still for that read-out and setting: next, `CNC(=O)c1cc(C2(C#N)CCC2)cc(NS(=O)(=O)c2cc(Br)cc(Cl)c2O)c1O` [Compound 7k, 3-((5-Bromo-3-chloro-2-hydroxyphenyl)sulfonamido)-5-(1-cyanocyclobutyl)-2-hydroxy-N-methylbenzamide]: “concentration-dependent response”.
As to `N#CC1(c2cc(NS(=O)(=O)c3cc(Br)ccc3O)c(O)c(C(=O)Nc3nc[nH]n3)c2)CCC1` [Compound 7n, 3-((5-Bromo-2-hydroxyphenyl)sulfonamido)-5-(1-cyanocyclobutyl)-2-hydroxy-N-(1H-1,2,4-triazol-3-yl)benzamide], the Kd (usually the free concentration of one partner at which half of the binding sites on the other are occupied at equilibrium, for simple one-to-one binding) at WDR5 [3] came to 0.046 ± 0.014 µM.
Same read-out and setting: next, `COCCNC(=O)c1cc(C2(C#N)CCC2)cc(NS(=O)(=O)c2cc(Br)ccc2O)c1O` [Compound 7o, 3-((5-Bromo-2-hydroxyphenyl)sulfonamido)-5-(1-cyanocyclobutyl)-2-hydroxy-N-(2-methoxyethyl)benzamide]: 0.757 ± 0.017 µM.
As for `COc1ccc(Br)cc1S(=O)(=O)Nc1cc(Cl)cc(S(C)(=O)=O)c1O` [Compound 8, 5-Bromo-N-(5-chloro-2-hydroxy-3-(methylsulfonyl)phenyl)-2-methoxybenzenesulfonamide], the “binding affinity for WDR5 (in words)” value at WDR5 [1] is given as “sub-micromolar affinity”.
On the same count and under the same terms, with `CNC(=O)c1cc(C2(C#N)CCC2)cc(NS(=O)(=O)c2cc(Br)ccc2OC)c1O` [Compound 9, 3-((5-Bromo-2-methoxyphenyl)sulfonamido)-5-(1-cyanocyclobutyl)-2-hydroxy-N-methylbenzamide] the entry was “sub-micromolar affinity”.
